From US20070173488A1, “Pyrazolothiazole Protein Kinase Modulators” (SGX Pharmaceuticals, Inc., priority 2005, published 2007)

Key:
[1] = target: Met (Homo sapiens, UniProt P08581); assay: Met phosphorylation assay in GTL16 cells; assay type: cell-based; set-up: endogenous in cells; host or cells: GTL16 cells; settings: compound 1 hour, anti-Phospho-Met (Tyr1234/1235), read-out: Met Phosp.
Experimental: GTL16 cells were maintained in DMEM Medium supplemented with 10% fetal bovine serum (FBS) 2 mM L-Glutamine and 100 units penicillin/100 μg streptomycin, at 37° C. in 5% CO2.
(§1) Compounds were tested in the following assays in duplicate.
Met phosphorylation assay: GTL16 cells were plated out at […] cells per 60×15 mm dish (Falcon) in 3 mL of assay media. The following day compound at various concentrations were added in assay media and incubated for 1 hour at 37° C. 5% CO2. After 1 hour the media was aspirated, and the cells were washed once with 1×PBS. The PBS was aspirated and the cells were harvested in 100 μL of modified RIPA lysis buffer (Tris.Cl pH 7.4, 1% NP-40, 5 mM EDTA, 5 mM NaPP, 5 mM NaF, 150 mM NaCl, Protease inhibitor cocktail (Sigma), 1 mM PMSF, 2 mM NaVO4) and transferred to a 1.7 mL eppendorf tube and incubated on ice for 15 minutes. After lysis, the tubes were centrifuged (10 minutes, 14,000 g, 4° C.). Lysates were then transferred to a fresh eppendorf tube. The samples were diluted 1:2 (250,000 cells/tube) with 2×SDS PAGE loading buffer and heated for 5 minutes at 98° C. The lysates were separated on a NuPage 4-12% Bis-Tris Gel 1.0 mm×12 well (Invitrogen), at 200V, 400 mA for approximately 40 minutes. The samples were then transferred to a 0.45 micron Nitrocellulose membrane Filter Paper Sandwich (Invitrogen) for 1 hour at 75V, 400 mA. After transferring, the membranes were placed in blocking buffer for 1 hour at room temperature with gentle rocking. The blocking buffer was removed and a 1:500 dilution of anti-Phospho-Met (Tyr1234/1235) antibody (Cell Signaling Technologies Cat. # 3126L) in 5% BSA, 0.05% Tween 20 in 1×PBS was added and the blots were incubated overnight at room temperature. The following day the blots were washed three times with 1×PBS, 0.1% Tween20. A 1:3000 dilution of HRP conjugated goat anti-rabbit antibody (Jackson ImmunoResearch Laboratories Cat. # 111-035-003) in blocking buffer, was added and incubated for 1 hr at room temperature with gentle rocking. The blot was wash 3 times in PBS, 0.1% Tween20 and visualized by chemiluminescence with SuperSignal West Pico Chemiluminescent Substrate (Pierce #34078).

[2] = target: T1, T315I Ba/F3 (Homo sapiens, UniProt P00519, T315I, cells depend on it, form not given); assay: 96-well XTT cell survival assay (Ba/F3 cells); assay type: cell-based; settings: 72 hours, read-out: T315I Ba/F3 XTT IC50
T1 construct: The candidate is BCR (P11274) N-terminal part, as in Bcr-Abl p210 or p185
Experimental: Ba/F3 cells were maintained in RPMI 1640 supplemented with 10% FBS, penicillin/streptomycin and 5 ng/ml recombinant mouse IL-3.
as §1
96-well XTT assay (Ba/F3 cells): Cells were grown in growth media containing various concentrations of compounds (duplicates) on a 96-well plate for 72 hours at 37° C. The starting cell number was 5000-8000 cells per well and volume was 120 μl. At the end of the 72-hour incubation, 40 μl of XTT labeling mixture (50:1 solution of sodium 3′-[1-(phenylamino-carbonyl)-3,4-tetrazolium]-bis (4-methoxy-6-nitro) benzene sulfonic acid hydrate and Electron-coupling reagent: PMS (N-methyl dibenzopyrazine methyl sulfate) were added to each well of the plate. After an additional 2-6 hours of incubation at 37° C., the absorbance reading at 405 nm with background correction at 650 nm was measured with a spectrophotometer.

Chain of Met (P08581 25-1390): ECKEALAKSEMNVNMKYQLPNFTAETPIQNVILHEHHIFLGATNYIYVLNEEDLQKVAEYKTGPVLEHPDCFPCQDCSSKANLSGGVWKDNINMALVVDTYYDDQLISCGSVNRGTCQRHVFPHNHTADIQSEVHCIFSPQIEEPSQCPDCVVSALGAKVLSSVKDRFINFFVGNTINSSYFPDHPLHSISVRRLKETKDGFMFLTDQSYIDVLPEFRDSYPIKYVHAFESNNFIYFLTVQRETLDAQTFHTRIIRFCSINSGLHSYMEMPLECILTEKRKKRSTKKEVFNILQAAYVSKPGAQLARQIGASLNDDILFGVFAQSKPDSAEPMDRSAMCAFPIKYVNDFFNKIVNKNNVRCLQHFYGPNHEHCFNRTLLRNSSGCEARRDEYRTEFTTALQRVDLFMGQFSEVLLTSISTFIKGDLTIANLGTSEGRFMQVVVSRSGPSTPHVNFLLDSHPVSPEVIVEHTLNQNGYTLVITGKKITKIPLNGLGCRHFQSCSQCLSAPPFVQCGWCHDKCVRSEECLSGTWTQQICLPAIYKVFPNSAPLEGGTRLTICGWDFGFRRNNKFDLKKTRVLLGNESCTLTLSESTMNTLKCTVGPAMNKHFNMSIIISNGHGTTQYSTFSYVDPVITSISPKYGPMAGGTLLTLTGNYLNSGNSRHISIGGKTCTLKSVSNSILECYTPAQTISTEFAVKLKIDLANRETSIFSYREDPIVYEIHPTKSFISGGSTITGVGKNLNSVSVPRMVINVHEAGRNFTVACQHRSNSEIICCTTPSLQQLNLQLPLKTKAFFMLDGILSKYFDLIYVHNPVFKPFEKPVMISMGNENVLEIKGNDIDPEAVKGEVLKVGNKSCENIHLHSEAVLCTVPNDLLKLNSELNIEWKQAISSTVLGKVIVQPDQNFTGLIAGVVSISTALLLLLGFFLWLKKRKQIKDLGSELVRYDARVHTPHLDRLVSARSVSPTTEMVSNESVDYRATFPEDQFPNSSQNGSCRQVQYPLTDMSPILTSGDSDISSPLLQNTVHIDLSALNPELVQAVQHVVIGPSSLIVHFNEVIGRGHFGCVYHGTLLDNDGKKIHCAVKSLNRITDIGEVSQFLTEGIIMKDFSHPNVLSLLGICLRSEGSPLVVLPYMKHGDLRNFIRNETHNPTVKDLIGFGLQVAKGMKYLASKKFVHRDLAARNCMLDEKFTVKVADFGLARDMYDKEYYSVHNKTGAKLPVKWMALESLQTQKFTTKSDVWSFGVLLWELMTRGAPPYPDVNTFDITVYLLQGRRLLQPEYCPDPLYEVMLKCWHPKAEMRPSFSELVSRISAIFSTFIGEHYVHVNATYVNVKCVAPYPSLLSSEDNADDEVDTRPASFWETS

## O=C(Nc1nc2[nH]nc(-n3cncc3-c3cccc(F)c3F)c2s1)C1CC1 [Cyclopropanecarboxylic acid {3-[5-(2,3-difluoro-phenyl)-imidazol-1-yl]-1H-pyrazolo[3,4-d]thiazol-5-yl}-amide]
[1]
  IC50: > 10 µM
[2]
  GI50: 0.1 to 1 µM

## O=C(Nc1nc2[nH]nc(-n3cncc3-c3c(Cl)cccc3Cl)c2s1)C1CC1 [Cyclopropanecarboxylic acid {3-[5-(2,6-dichloro-phenyl)-imidazol-1-yl]-1H-pyrazolo[3,4-d]thiazol-5-yl}-amide]
[1]
  IC50: 1 to 10 µM
[2]
  GI50: 0.1 to 1 µM

## O=C(Nc1nc2[nH]nc(-n3cncc3-c3c(Cl)ccc(Cl)c3Cl)c2s1)C1CC1 [Cyclopropanecarboxylic acid {3-[5-(2,3,6-trichloro-phenyl)-imidazol-1-yl]-1H-pyrazolo[3,4-d]thiazol-5-yl}-amide]
[2]
  GI50: 0.1 to 1 µM

## O=C(Nc1nc2[nH]nc(-n3cncc3-c3ccccn3)c2s1)C1CC1 [Cyclopropanecarboxylic acid [3-(5-pyridin-2-yl-imidazol-1-yl)-1H-pyrazolo[3,4-d]thiazol-5-yl]-amide]
[2]
  GI50: 1 to 10 µM

## O=C(Nc1cc[nH]n1)Nc1nc2[nH]nc(-n3cncc3-c3ccccc3Cl)c2s1 [1-{3-[5-(2-Chloro-phenyl)-imidazol-1-yl]-1H-pyrazolo[3,4-d]thiazol-5-yl}-3-(1H-pyrazol-3-yl)-urea]
[1]
  IC50: > 10 µM

## O=C(Nc1nc2[nH]nc(-n3cncc3-c3ccccc3)c2s1)C1CC1 [Cyclopropanecarboxylic acid [3-(5-phenyl-imidazol-1-yl)-1H-pyrazolo[3,4-d]thiazol-5-yl]-amide]
[2]
  GI50: 0.1 to 1 µM

## O=C(Nc1nc2[nH]nc(-n3cncc3-c3ccccc3Cl)c2s1)C1CC1 [Cyclopropanecarboxylic acid {3-[5-(2-chloro-phenyl)-imidazol-1-yl]-1H-pyrazolo[3,4-d]thiazol-5-yl}-amide]
[1]
  IC50: 1 to 10 µM
[2]
  GI50: 0.1 to 1 µM
